Experimental findings from ChEMBL document CHEMBL3714766, “Tetrahydroisoquinoline compounds and their use as pyruvate dehydrogenase kinase inhibitors” (2015) are described below.

In the assay the target is Pyruvate dehydrogenase kinase (Homo sapiens, UniProt Q15119+Q15120+Q16654+Q15118). The assay can be described thus: Binding affinity to pyruvate dehydrogenase kinase (unknown origin) by VER-00160364 probe based fluorescence polarization assay.
`C[C@H]1CCc2cc(-c3cc4occc4cn3)ccc2N1C(=O)c1ccc(O)cc1O` displayed a half-inhibitory concentration (IC50) of 100 nM.

In turn, `Cc1ccc2c(c1)CCCN2C(=O)c1ccc(O)cc1O` came in with an IC50 of 100 nM.

In turn, `CC1CCc2cc(C(=O)N3CCCCC3)ccc2N1C(=O)c1ccc(O)cc1O` (stereo not drawn) yielded an IC50 of 100 nM.

`CSc1nc2c(c(-c3ccc4c(c3)CC[C@H](C)N4C(=O)c3ccc(O)cc3O)n1)CCC2` returned an IC50 of 1000 nM.

Turning to `Cc1cccnc1-c1ccc2c(c1)CCC(C)N2C(=O)c1cc(Cl)c(O)cc1O` (stereo not drawn), the IC50 amounted to 100 nM.

In the case of `Cc1cnc(Cl)nc1-c1ccc2c(c1)CCC(c1cccnc1)N2C(=O)c1ccc(O)cc1O` (stereo not drawn), the IC50 is 10 nM.

As to `C[C@H]1CCc2ccccc2N1C(=O)c1cc(Cl)c(O)cc1O`, the IC50 is on record as 100 nM.

In the case of `Cc1cn(C)c(-c2ccc3c(c2)CCC(C)N3C(=O)c2cc(Cl)c(O)cc2O)n1` (stereo not drawn), the IC50 is 1000 nM.

The molecule `O=C(c1ccc(O)cc1O)N1CCCc2cc(OC(F)(F)F)ccc21` returned an IC50 of 1000 nM.

For the molecule `COc1cc(-c2ccc3c(c2)CC[C@H](C)N3C(=O)c2ccc(O)cc2O)cnc1OC`, the IC50 is recorded as 100 nM.

As to `Cc1ccnnc1-c1ccc2c(c1)CCC(C)N2C(=O)c1ccc(O)cc1O` (stereo not drawn), the IC50 turned out to be 100 nM.

As for `CC(=O)Nc1ccc(-c2ccc3c(c2)CC[C@H](C)N3C(=O)c2ccc(O)cc2O)c(C)n1`, the IC50 was 100 nM.

`CNc1nccc(-c2ccc3c(c2)CC[C@H](C)N3C(=O)c2ccc(O)cc2O)n1` gave a half-inhibitory concentration (IC50) of 100 nM.

`C[C@H]1CCc2cc(C(=O)N(C)Cc3cc4ccccc4[nH]3)ccc2N1C(=O)c1ccc(O)cc1O` gave an IC50 of 100 nM.

In turn, `O=C(c1ccc(O)cc1O)N1CCCc2cc(OCc3ccccc3)ccc21` gave an IC50 of 10000 nM.

In turn, `CCCc1cncnc1-c1ccc2c(c1)CC[C@H](C)N2C(=O)c1ccc(O)cc1O` displayed an IC50 of 100 nM.

As to `COCCNc1ncc(C)c(-c2ccc3c(c2)CC[C@H](C)N3C(=O)c2ccc(O)cc2O)n1`, the IC50 stood at 100 nM.

Consider `CC1CCc2cc(F)ccc2N1C(=O)c1cc(Cl)c(O)cc1O` (stereo not drawn), for which the IC50 amounted to 100 nM.

The molecule `Cc1cn(-c2ccc(-c3ccc4c(c3)CC[C@H](C)N4C(=O)c3ccc(O)cc3O)nn2)cn1` yielded an IC50 of 100 nM.

`C[C@H]1CCc2cc(C(=O)N(C)Cc3ccnc(Cl)c3)ccc2N1C(=O)c1ccc(O)cc1O`: the IC50 was 100 nM.

For the molecule `CNc1ccc(-c2ccc3c(c2)CC[C@H](C)N3C(=O)c2ccc(O)cc2O)c(C)n1`, the IC50 is 100 nM.

Regarding `C[C@H]1CCc2cc(C(=O)N(C)Cc3ccc4c(ccn4C)c3)ccc2N1C(=O)c1ccc(O)cc1O`, the IC50 was found to be 100 nM.

The molecule `Cc1ccc(C)c(-c2ccc3c(c2)CC[C@H](C)N3C(=O)c2ccc(O)cc2O)n1` came in with an IC50 of 100 nM.

In turn, `C[C@H]1CCc2cc(-c3ncccc3C(F)(F)F)ccc2N1C(=O)c1ccc(O)cc1O` came in with a half-inhibitory concentration (IC50) of 100 nM.

`CC1CCc2cc(-c3nccn3C)ccc2N1C(=O)c1ccc(O)cc1O` (stereo not drawn) gave an IC50 of 100 nM.

Take `CN(CC(=O)O)C(=O)c1ccc2c(c1)CCCN2C(=O)c1ccc(O)cc1O`: the IC50 was 1000 nM.

In the case of `C[C@H]1CCc2cc(-c3ccc(NC4CC4)nn3)ccc2N1C(=O)c1ccc(O)cc1O`, the IC50 came out at 1000 nM.

Molecule `Cc1cc2cc(F)ccc2nc1-c1ccc2c(c1)CC[C@H](C)N2C(=O)c1ccc(O)cc1O` gave an IC50 of 1000 nM.

`Cc1cccnc1-c1ccc2c(c1)CC[C@H](C)N2C(=O)c1ccc(O)cc1O` came in with an IC50 of 100 nM.

`CSc1nc(Cl)cc(-c2ccc3c(c2)CC[C@H](C)N3C(=O)c2ccc(O)cc2O)n1` registered an IC50 of 1000 nM.

In the case of `CC1CCc2cc(C(=O)N(C)Cc3nc4ccccc4n3C)ccc2N1C(=O)c1ccc(O)cc1O` (stereo not drawn), the IC50 is listed as 100 nM.

As to `Cc1cccnc1-c1ccc2c(c1)CC[C@@H](C)N2C(=O)c1ccc(O)cc1O`, the IC50 was determined as 10000 nM.

For the molecule `CCOC(=O)c1nc(-c2ccc3c(c2)CC[C@H](C)N3C(=O)c2ccc(O)cc2O)c2ccccc2n1`, the IC50 stood at 100 nM.

`COc1ccc2c(c1)CCCN2C(=O)c1ccc(O)cc1O` registered an IC50 of 100 nM.

As to `CC1CCc2cc(C(=O)N(C)Cc3nc4ccccc4s3)ccc2N1C(=O)c1ccc(O)cc1O` (stereo not drawn), the IC50 was determined as 100 nM.

On to `Cc1cc(S(=O)(=O)NCCCC(N)=O)cnc1-c1ccc2c(c1)CC[C@H](C)N2C(=O)c1ccc(O)cc1O`, for which the IC50 worked out at 10 nM.

For `C[C@H]1CCc2cc(-c3nc(Cl)nc4c3COCC4)ccc2N1C(=O)c1ccc(O)cc1O`, the IC50 is 100 nM.

In turn, `Cc1ccnnc1-c1ccc2c(c1)CC[C@H](C)N2C(=O)c1ccc(O)cc1O` registered an IC50 of 100 nM.

For the molecule `Cc1cnc(Cl)nc1-c1ccc2c(c1)CC[C@@H](C)N2C(=O)c1ccc(O)cc1O`, the concentration for half-maximal inhibition (IC50) was 10000 nM.

For the molecule `C[C@H]1CCc2cc(-c3nc4ccc(Cl)cc4cc3CO)ccc2N1C(=O)c1ccc(O)cc1O`, the IC50 was found to be 100 nM.

As to `O=C(c1ccc(O)cc1O)N1c2ccc(-c3ncnc4[nH]ccc34)cc2CCC1c1cccnc1` (stereo not drawn), the IC50 was found to be 10 nM.

In turn, `C[C@H]1CCc2cc(-c3ccnc(N)n3)ccc2N1C(=O)c1ccc(O)cc1O` displayed an IC50 of 100 nM.

`Cc1cnc(NCCN(C)C)nc1-c1ccc2c(c1)CC[C@H](C)N2C(=O)c1ccc(O)cc1O` had an IC50 of 1000 nM.

As to `CC(=O)NCCNS(=O)(=O)c1cnc(-c2ccc3c(c2)CC[C@H](C)N3C(=O)c2ccc(O)cc2O)c(C)c1`, the IC50 is 10 nM.

As for `C[C@H]1CCc2cc(-c3nc(C(F)(F)F)nc4ccccc34)ccc2N1C(=O)c1ccc(O)cc1O`, the IC50 is 1000 nM.

`Cc1cc(Cl)nnc1-c1ccc2c(c1)CC[C@H](C)N2C(=O)c1ccc(O)cc1O` returned an IC50 of 10 nM.

`Cc1cnc(Cl)nc1-c1ccc2c(c1)CCC(C)N2C(=O)c1ccc(O)cc1O` (stereo not drawn): the IC50 is reported as 10 nM.

`Cc1cc2ccc(F)cc2nc1-c1ccc2c(c1)CC[C@H](C)N2C(=O)c1ccc(O)cc1O`: the IC50 is given as 100 nM.

Take `COc1ccc(CN(C)C(=O)c2ccc3c(c2)CCC(C)N3C(=O)c2ccc(O)cc2O)cc1` (stereo not drawn): the IC50 worked out at 10 nM.

As for `COCCN(C)S(=O)(=O)c1cnc(-c2ccc3c(c2)CC[C@H](C)N3C(=O)c2ccc(O)cc2O)c(C)c1`, the IC50 turned out to be 100 nM.

As to `C[C@H]1CCc2cc(-c3nc(C(F)(F)F)ccc3C(F)(F)F)ccc2N1C(=O)c1ccc(O)cc1O`, the IC50 came to 1000 nM.

On to `CN(Cc1ccccn1)C(=O)c1ccc2c(c1)CCCN2C(=O)c1ccc(O)cc1O`, for which the IC50 was found to be 1000 nM.

`CCN(CC)S(=O)(=O)c1ccc2c(c1)CCC(C)N2C(=O)c1ccc(O)cc1O` (stereo not drawn) returned an IC50 of 100 nM.

The molecule `CCOC(=O)CN(C)C(=O)c1ccc2c(c1)CCCN2C(=O)c1ccc(O)cc1O` displayed an IC50 of 1000 nM.

With `CC1CCc2cc(C(=O)N(C)C)ccc2N1C(=O)c1ccc(O)cc1O` (stereo not drawn), the IC50 turned out to be 100 nM.

The molecule `C[C@H]1CCc2cc(F)ccc2N1C(=O)c1ccc(O)cc1O` gave an IC50 of 100 nM.

In turn, `C[C@H]1CCc2cc(-c3ccc(Cl)nc3)ccc2N1C(=O)c1ccc(O)cc1O` yielded an IC50 of 1000 nM.

Molecule `CC(C)c1ccc2c(c1)CCCN2C(=O)c1ccc(O)cc1O` came in with an IC50 of 100 nM.

In the case of `O=C(c1ccc2c(c1)CCCN2C(=O)c1ccc(O)cc1O)N1Cc2ccccc2C1`, the IC50 is 1000 nM.

`Cc1cc(S(=O)(=O)N2CCN(C)CC2)cnc1-c1ccc2c(c1)CC[C@H](C)N2C(=O)c1ccc(O)cc1O` registered an IC50 of 10 nM.

With `Cc1nccnc1-c1ccc2c(c1)CCC(C)N2C(=O)c1ccc(O)cc1O` (stereo not drawn), the IC50 is on record as 100 nM.

`C[C@H]1CCc2cc(-c3ccc(OCCN4CCCC4)nn3)ccc2N1C(=O)c1ccc(O)cc1O` returned an IC50 of 1000 nM.

`O=C(O)c1ccc2c(c1)CCCN2C(=O)c1ccc(O)cc1O` returned an IC50 of 10000 nM.

`CC1CCc2cc(-c3ncccc3C#N)ccc2N1C(=O)c1ccc(O)cc1O` (stereo not drawn) showed an IC50 of 100 nM.

`Cc1ccc[n+]([O-])c1-c1ccc2c(c1)CC[C@H](C)N2C(=O)c1ccc(O)cc1O` returned an IC50 of 100 nM.

With `Cc1cc2cc(Cl)ccc2nc1-c1ccc2c(c1)CC[C@H](C)N2C(=O)c1ccc(O)cc1O`, the IC50 was 1000 nM.

In the case of `COc1ccc(-c2ccc3c(c2)CC[C@H](C)N3C(=O)c2ccc(O)cc2O)c(Cl)c1`, the IC50 was 1000 nM.

`CC1CCc2cc(C(=O)N(C)CC(F)(F)F)ccc2N1C(=O)c1ccc(O)cc1O` (stereo not drawn) yielded an IC50 of 100 nM.

For `Cc1cc(-c2ccc3c(c2)CC[C@H](C)N3C(=O)c2ccc(O)cc2O)nnc1Cl`, the IC50 worked out at 100 nM.

In turn, `Cc1cc(S(=O)(=O)NCc2ccccn2)cnc1-c1ccc2c(c1)CC[C@H](C)N2C(=O)c1ccc(O)cc1O` returned an IC50 of 10 nM.

`Cc1cccnc1-c1ccc2c(c1)CCC(c1cccnc1)N2C(=O)c1ccc(O)cc1O` (stereo not drawn) had an IC50 of 10 nM.

As to `COc1cc(-c2ccc3c(c2)CC[C@H](C)N3C(=O)c2ccc(O)cc2O)ncn1`, the IC50 is 1000 nM.

On to `Cc1nc(C)c(-c2ccc3c(c2)CC[C@H](C)N3C(=O)c2ccc(O)cc2O)s1`, for which the IC50 was 1000 nM.

`Cc1cc(S(=O)(=O)NCc2ccccc2)cnc1-c1ccc2c(c1)CC[C@H](C)N2C(=O)c1ccc(O)cc1O` yielded an IC50 of 10 nM.

Regarding `O=C(c1ccc(O)cc1O)N1CCCc2cc(-c3ncccc3C(F)(F)F)ccc21`, the IC50 is 1000 nM.

The molecule `CC1CCc2cc(C(=O)N(C)Cc3nc4ccccc4[nH]3)ccc2N1C(=O)c1ccc(O)cc1O` (stereo not drawn) returned an IC50 of 100 nM.

Turning to `CN(CC(F)(F)F)C(=O)c1ccc2c(c1)CCCN2C(=O)c1ccc(O)cc1O`, the IC50 is 1000 nM.

For `C[C@H]1CCc2cc(-c3cnc4ccccc4n3)ccc2N1C(=O)c1ccc(O)cc1O`, the IC50 is 1000 nM.

Take `Cc1cnc(C)c(-c2ccc3c(c2)CC[C@H](C)N3C(=O)c2ccc(O)cc2O)n1`: the IC50 is on record as 100 nM.

`Cc1cc(-c2ccc3c(c2)CC[C@H](C)N3C(=O)c2ccc(O)cc2O)cnc1N`: the IC50 came out at 100 nM.

Molecule `C[C@H]1CCc2cc(-c3ncccc3C#N)ccc2N1C(=O)c1ccc(O)cc1O` showed an IC50 of 100 nM.

Molecule `CC1CCc2cc(-c3ncccc3Cl)ccc2N1C(=O)c1cc(Cl)c(O)cc1O` (stereo not drawn) showed an IC50 of 1000 nM.

As for `O=C(c1ccc(O)cc1O)N1c2ccccc2CCC1c1ccco1` (stereo not drawn), the IC50 came out at 1000 nM.
